Assay [1] concerns the target T1, Tyrosine-protein phosphatase non-receptor type 1 (Homo sapiens, UniProt P18031).
T1 sequence (P18031 whole entry): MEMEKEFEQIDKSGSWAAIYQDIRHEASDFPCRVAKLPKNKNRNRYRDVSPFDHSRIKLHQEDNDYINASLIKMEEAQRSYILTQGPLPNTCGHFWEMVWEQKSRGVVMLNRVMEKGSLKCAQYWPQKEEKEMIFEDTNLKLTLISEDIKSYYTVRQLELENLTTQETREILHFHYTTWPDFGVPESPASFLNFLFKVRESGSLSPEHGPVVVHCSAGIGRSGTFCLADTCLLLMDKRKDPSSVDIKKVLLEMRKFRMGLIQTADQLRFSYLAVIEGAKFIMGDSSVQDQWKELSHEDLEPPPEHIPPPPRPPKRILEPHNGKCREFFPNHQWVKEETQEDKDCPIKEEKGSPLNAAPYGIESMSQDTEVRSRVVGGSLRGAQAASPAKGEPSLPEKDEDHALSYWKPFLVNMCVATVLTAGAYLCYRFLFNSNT
Description: Binding affinity to human N-terminal His6-tagged PTP1B catalytic domain (1 to 298 residues) expressed in Escherichia coli strain Rosetta2 (DE3) assessed as dissociation rate constant using DiFMUP as substrate preincubated for 10 mins followed by substrate addition measured for 10 mins fluorescence assay.

Assay [2] addresses T1, Tyrosine-protein phosphatase non-receptor type 1. Description: Binding affinity to human N-terminal His6-tagged PTP1B catalytic domain (1 to 298 residues) expressed in Escherichia coli strain Rosetta2 (DE3) assessed as association rate constant using DiFMUP as substrate preincubated for 10 mins followed by substrate addition measured for 10 mins fluorescence assay.

Consider `C=c1c(O)c(O)cc2c1=CC=C1[C@@]2(C)CC[C@@]2(C)[C@@H]3C[C@](C)(C(=O)O)CC[C@]3(C)CC[C@]12C`, for which, in assay [1], the dissociation rate constant (koff) was found to be 0.000362 s⁻¹. Also, the on-rate constant (kon) in assay [2] is 59 M⁻¹ s⁻¹.

As a reminder, the koff is the rate constant with which the complex falls apart. In general, kon refers to the rate constant with which the complex forms.
